Test results from US8003658B2, “Quinazoline derivatives for inhibiting cancer cell growth and method for the preparation thereof” (Hanmi Holdings Co., Ltd., priority 2004, dated 2011).
Like-named read-outs stand apart in the source and are kept apart here.

What was measured:
[1] = tested on: A431 (ATCC: CRL-1555); test: Test of cancer cell growth inhibition (SRB), A431; details: read-out: IC50 A431
[2] = tested on: SK-Br3 (ATCC: HTB-30); test: Test of cancer cell growth inhibition (SRB), SK-Br3; details: read-out: IC50 SK-Br-3
[3] = EGFR overexpressed A431, 72 hours, SRB
[4] = Erb-B2 overexpressed SK-Br3, 72 hours, SRB

| Compound | IC50 ([1]; Homo sapiens, A-431, 72 h) [nM] | IC50 ([2]; Homo sapiens, SK-BR-3, 72 h) [nM] | IC50 [1, 3] [nM] | IC50 [2, 4] [nM] |
| --- | --- | --- | --- | --- |
| COCC(=O)Nc1ccsc1C(=O)Nc1ccc2ncnc(Nc3ccc(OCc4cccc(F)c4)c(Cl)c3)c2c1 [Example 48, 3-(2-methoxy-acetylamino)-thiophene-2-carboxylic acid {4-[3-chloro-4-(3-fluoro-benzyloxy)-phenylamino]-quinazolin-6-yl}-amide] | 828 | 131 |  |  |
| C=CC(=O)N1CCC[C@H]1C(=O)Nc1cc2c(Nc3ccc4c(cnn4Cc4cccc(F)c4)c3)ncnc2cc1OC [Example 188, (2S)-1-acryloyl-pyrrolidine-2-carboxylic acid {4-[1-(3-fluoro-benzyl)-1H-indazol-5-ylamino]-7-methoxy-quinazolin-6-yl}-amide] | 24 | 6 |  |  |
| O=C(C=CCN1CCOCC1)NCCC(=O)Nc1ccc2ncnc(Nc3ccc(OCc4cccc(F)c4)c(Cl)c3)c2c1 [Example 57, 4-morpholin-4-yl-but-2-enonylic acid (2-{4-[3-chloro-4-(3-fluoro-benzyloxy)-phenylamino]-quinazolin-6-ylcarbamoyl}-ethyl)-amide] |  |  | 625 | 43 |
| CS(=O)(=O)CC(=O)NCCC(=O)Nc1ccc2ncnc(Nc3ccc(OCc4cccnc4)c(Cl)c3)c2c1 [Example 133, N-{4-[3-chloro-4-(pyridin-3-ylmethoxy)-phenylamino]-quinazolin-6-yl}-3-(2-methanesulfonyl-acetylamino)-propionamide] | 7260 | 1110 |  |  |
| C=CC(=O)N1CCC1C(=O)Nc1cc2c(Nc3ccc(OCc4ccccn4)c(Cl)c3)ncnc2cc1F (centres unmarked) [Example 195, 1-acryloyl-azetidine-2-carboxylic acid {4-[3-chloro-4-(pyridin-2-ylmethoxy)-phenylamino]-7-fluoro-quinazolin-6-yl}-amide] | 119 | 44 |  |  |
| Cc1cc(C(=O)NCCC(=O)Nc2ccc3ncnc(Nc4ccc(OCc5cccc(F)c5)c(Cl)c4)c3c2)on1 [Example 32, 3-methyl-isoxazol-5-carboxylic acid (2-{4-[3-chloro-4-(3-fluoro-benzyloxy)-phenylamino]-quinazolin-6-ylcarbamoyl}-ethyl)-amide] | 312 | 163 |  |  |
| CN(C)CCOCC(=O)NCCC(=O)Nc1ccc2ncnc(Nc3ccc(OCc4cccc(F)c4)c(Cl)c3)c2c1 [Example 122, N-{4-[3-chloro-4-(3-fluoro-benzyloxy)-phenylamino]-quinazolin-6-yl}-3-[2-(2-dimethylamino-ethoxy)-acetylamino]-propionamide] | 617 | 85 |  |  |
| C=CC(=O)NCCC(=O)N(CC)c1ccc2ncnc(Nc3ccc(OCc4cccc(F)c4)c(Cl)c3)c2c1 [Example 140, N-[2-({4-[3-chloro-4-(3-fluoro-benzyloxy)-phenylamino]-quinazolin-6-yl}-ethyl-carbamoyl)-ethyl]-acrylamide] | 102 | 102 |  |  |
| C=CC(=O)NCCC(=O)Nc1ccc2ncnc(Nc3ccc(OCc4cccnc4)c(Cl)c3)c2c1 [Example 134, N-(2-{4-[3-chloro-4-(pyridin-3-ylmethoxy)-phenylamino]-quinazolin-6-ylcarbamoyl}-ethyl)-acrylamide] | 193 | 4 |  |  |
| C=CC(=O)N1CCC[C@H]1C(=O)Nc1cc2c(Nc3ccc(OCc4ccccn4)c(Cl)c3)ncnc2cc1OCCOC [Example 213, (2S)-1-acryloyl-pyrrolidine-2-carboxylic acid {4-[3-chloro-4-(pyridin-2-ylmethoxy)-phenylamino]-7-(2-methoxyethoxy)-quinazolin-6-yl}-amide] | 34 | 4 |  |  |
| C=CC(=O)N1CCC(C(=O)Nc2cc3c(Nc4ccc(OCc5ccccn5)c(Cl)c4)ncnc3cc2OC)C1 (centres unmarked) [Example 198, 1-acryloyl-pyrrolidine-3-carboxylic acid {4-[3-chloro-4-(pyridin-2-ylmethoxy)-phenylamino]-7-methoxy-quinazolin-6-yl}-amide] | 47 | 24 |  |  |
| CC(CNC(=O)CS(C)(=O)=O)C(=O)Nc1ccc2ncnc(Nc3ccc(OCc4cccc(F)c4)c(Cl)c3)c2c1 (centres unmarked) [Example 43, N-{4-[3-chloro-4-(3-fluoro-benzyloxy)-phenylamino]-quinazolin-6-yl}-3-(2-methanesulfonyl-acetylamino)-2-methyl-propionamide] | 390 | 115 |  |  |
| CC(C)(C)OC(=O)NCCCCC(=O)Nc1ccc2ncnc(Nc3ccc(OCc4cccc(F)c4)c(Cl)c3)c2c1 [Example 114, (4-{4-[3-chloro-4-(3-fluoro-benzyloxy)-phenylamino]-quinazolin-6-ylcarbamoyl}-butyl)-carbamic acid t-butylester] | 136 | 216 |  |  |
| C=CC(=O)N1CCC[C@H]1C(=O)Nc1ccc2ncnc(Nc3ccc(Oc4ccc(C)nc4)c(C)c3)c2c1 [Example 157, (2S)-1-acryloyl-pyrrolidine-2-carboxylic acid {4-[3-methyl-4-(6-methyl-pyridin-3-yloxy)-phenylamino]-quinazolin-6-yl}-amide] | 5590 | 123 |  |  |
| C=CC(=O)N1CCC[C@H]1C(=O)Nc1cc2c(Nc3ccc(OCc4ccccn4)c(Cl)c3)ncnc2cc1OCCF [Example 187, (2S)-1-acryloyl-pyrrolidine-2-carboxylic acid [4-[3-chloro-4-(pyridin-2-ylmethoxy)-phenylamino]-7-(2-fluoro-ethoxy)-quinazolin-6-yl]-amide] | 22 | 3 |  |  |
| O=C(CCCNC(=O)C1CC1)Nc1ccc2ncnc(Nc3ccc(OCc4cccc(F)c4)c(Cl)c3)c2c1 [Example 92, cyclopropylcarboxylic acid (3-{4-[3-chloro-4-(3-fluoro-benzyloxy)-phenylamino]-quinazolin-6-ylcarbamoyl}-propyl)-amide] | 293 | 80 |  |  |
| CCOC(=O)C(=O)NCCCC(=O)Nc1ccc2ncnc(Nc3ccc(OCc4cccc(F)c4)c(Cl)c3)c2c1 [Example 91, N-(3-{4-[3-chloro-4-(3-fluoro-benzyloxy)-phenylamino]-quinazolin-6-ylcarbamoyl}-propyl)-oxalamic acid ethylester] | 603 | 445 |  |  |
| C=CC(=O)N1CCC1C(=O)Nc1cc2c(Nc3ccc(OCc4ccccn4)c(Cl)c3)ncnc2cc1OC (centres unmarked) [Example 182, 1-acryloyl-azetidine-2-carboxylic acid {4-[3-chloro-4-(pyridin-2-ylmethoxy)-phenylamino]-7-methoxy-quinazolin-6-yl}-amide] | 128 | 9 |  |  |
| C=CC(=O)N1C[C@H](O)C[C@H]1C(=O)Nc1ccc2ncnc(Nc3ccc(OCc4ccccn4)c(Cl)c3)c2c1 [Example 149, (2S,4R)-1-acryloyl-4-hydroxyl-pyrrolidine-2-carboxylic acid {4-[3-chloro-4-(pyridin-2-ylmethoxy)-phenylamino]-quinazolin-6-yl}-amide] | 54 | 2 |  |  |
| O=C(CCc1ccccc1)NCCC(=O)Nc1ccc2ncnc(Nc3ccc(OCc4cccc(F)c4)c(Cl)c3)c2c1 [Example 23, 3-phenyl-propionylic acid (2-{4-[3-chloro-4-(3-fluoro-benzyloxy)-phenylamino]-quinazolin-6-ylcarbamoyl}-ethyl)-amide] |  |  | 316 | 359 |
| C=CC(=O)N1CCC[C@H]1C(=O)Nc1cc2c(Nc3ccc(OCc4ccccn4)c(Cl)c3)ncnc2cc1OC1CCCC1 [Example 173, (2S)-1-acryloyl-pyrrolidine-2-carboxylic acid {4-[3-chloro-4-(pyridin-2-ylmethoxy)-phenylamino]-7-cyclopentyloxy-quinazolin-6-yl}-amide] | 552 | 29 |  |  |
| C=CC(=O)N1CCCC(C(=O)Nc2ccc3ncnc(Nc4ccc(OCc5ccccn5)c(Cl)c4)c3c2)C1 (centres unmarked) [Example 162, 1-acryloyl-piperidine-3-carboxylic acid {4-[3-chloro-4-(pyridin-2-ylmethoxy)-phenylamino]-quinazolin-6-yl}-amide] |  | 28 | 286 |  |
| C=CC(=O)N1CCC[C@H]1C(=O)Nc1cc2c(Nc3ccc(OCc4ccccn4)c(Cl)c3)ncnc2cc1F [Example 165, (2S)-1-acryloyl-pyrrolidine-2-carboxylic acid {4-[3-chloro-4-(pyridin-2-ylmethoxy)-phenylamino]-7-fluoro-quinazolin-6-yl}-amide] | 215 | 5 |  |  |
| COC(=O)NCCC(=O)Nc1ccc2ncnc(Nc3ccc(OCc4cccc(F)c4)c(Cl)c3)c2c1 [Example 126, (2-{4-[3-chloro-4-(3-fluoro-benzyloxy)-phenylamino]-quinazolin-6-ylcarbamoyl}-ethyl)-carbamic acid methylester] | 99 | 91 |  |  |
| CC(C)(C)OC(=O)NCC(=O)Nc1ccc2ncnc(Nc3ccc(OCc4cccc(F)c4)c(Cl)c3)c2c1 [Example 1-5, ({4-[3-chloro-4-(3-fluoro-benzyloxy)-phenylamino]-quinazolin-6-ylcarbamoyl}-methyl)-carbamic acid t-butylester] | 408 | 359 |  |  |
| CS(=O)(=O)CCNCC(=O)NCCCC(=O)Nc1ccc2ncnc(Nc3ccc(OCc4cccc(F)c4)c(Cl)c3)c2c1 [Example 107, N-{4-[3-chloro-4-(3-fluoro-benzyloxy)-phenylamino]-quinazolin-6-yl}-4-[2-(2-methanesulfonyl-ethylamino)-acetylamino]-butyramide] | 641 | 51 |  |  |
| (2S)-2-acryloylamino-N-{4-[3-chloro-4-(3-fluoro-benzyloxy)-phenylamino]-7-methoxy-quinazolin-6-yl}-4-methanesulfinyl-butyramide [Example 223] |  |  | 54 | 32 |
| C=CC(=O)N1C[C@H](S(=O)(=O)CC)C[C@H]1C(=O)Nc1ccc2ncnc(Nc3ccc(OCc4ccccn4)c(Cl)c3)c2c1 [Example 160, (2S,4R)-1-acryloyl-4-ethanesulfonyl-pyrrolidine-2-carboxylic acid {4-[3-chloro-4-(pyridin-2-ylmethoxy)-phenylamino]-quinazolin-6-yl}-amide] | 6930 | 437 |  |  |
